Assay results taken from ChEMBL document CHEMBL3991601, “The target landscape of clinical kinase drugs” (Science, 2017).
Activity calls are given as the source filed them. For most assays here, no stated cut-off is given here; in the data, actives have a measured Kd and inactives only a lower limit.

What was measured:
[1] = biological target: Protein-tyrosine kinase 6 (Homo sapiens, UniProt Q13882)
[2] = biological target: Rho-associated protein kinase 1 (Homo sapiens, UniProt Q13464)
Activin receptor type-2B = Activin receptor type-2B (Homo sapiens, UniProt Q13705)
Activin receptor type-2B, sequence (Q13705 whole entry, the tested form may be a part): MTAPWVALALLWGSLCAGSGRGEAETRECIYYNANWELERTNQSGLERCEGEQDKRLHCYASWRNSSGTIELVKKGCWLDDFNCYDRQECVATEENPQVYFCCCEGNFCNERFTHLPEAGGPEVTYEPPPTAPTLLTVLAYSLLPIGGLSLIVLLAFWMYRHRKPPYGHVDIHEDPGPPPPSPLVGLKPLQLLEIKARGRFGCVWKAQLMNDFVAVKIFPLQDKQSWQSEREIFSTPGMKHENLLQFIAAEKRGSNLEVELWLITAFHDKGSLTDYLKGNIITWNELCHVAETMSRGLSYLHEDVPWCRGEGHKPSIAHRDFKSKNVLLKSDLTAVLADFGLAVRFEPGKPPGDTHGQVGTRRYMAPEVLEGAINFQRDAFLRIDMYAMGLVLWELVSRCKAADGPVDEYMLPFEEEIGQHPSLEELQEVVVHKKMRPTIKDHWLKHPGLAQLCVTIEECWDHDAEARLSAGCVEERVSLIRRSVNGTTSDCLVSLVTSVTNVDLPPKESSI

[3] = biological target: PAS domain-containing serine/threonine-protein kinase (Homo sapiens, UniProt Q96RG2)
PAS domain-containing serine/threonine-protein kinase, sequence (Q96RG2 whole entry, the tested form may be a part): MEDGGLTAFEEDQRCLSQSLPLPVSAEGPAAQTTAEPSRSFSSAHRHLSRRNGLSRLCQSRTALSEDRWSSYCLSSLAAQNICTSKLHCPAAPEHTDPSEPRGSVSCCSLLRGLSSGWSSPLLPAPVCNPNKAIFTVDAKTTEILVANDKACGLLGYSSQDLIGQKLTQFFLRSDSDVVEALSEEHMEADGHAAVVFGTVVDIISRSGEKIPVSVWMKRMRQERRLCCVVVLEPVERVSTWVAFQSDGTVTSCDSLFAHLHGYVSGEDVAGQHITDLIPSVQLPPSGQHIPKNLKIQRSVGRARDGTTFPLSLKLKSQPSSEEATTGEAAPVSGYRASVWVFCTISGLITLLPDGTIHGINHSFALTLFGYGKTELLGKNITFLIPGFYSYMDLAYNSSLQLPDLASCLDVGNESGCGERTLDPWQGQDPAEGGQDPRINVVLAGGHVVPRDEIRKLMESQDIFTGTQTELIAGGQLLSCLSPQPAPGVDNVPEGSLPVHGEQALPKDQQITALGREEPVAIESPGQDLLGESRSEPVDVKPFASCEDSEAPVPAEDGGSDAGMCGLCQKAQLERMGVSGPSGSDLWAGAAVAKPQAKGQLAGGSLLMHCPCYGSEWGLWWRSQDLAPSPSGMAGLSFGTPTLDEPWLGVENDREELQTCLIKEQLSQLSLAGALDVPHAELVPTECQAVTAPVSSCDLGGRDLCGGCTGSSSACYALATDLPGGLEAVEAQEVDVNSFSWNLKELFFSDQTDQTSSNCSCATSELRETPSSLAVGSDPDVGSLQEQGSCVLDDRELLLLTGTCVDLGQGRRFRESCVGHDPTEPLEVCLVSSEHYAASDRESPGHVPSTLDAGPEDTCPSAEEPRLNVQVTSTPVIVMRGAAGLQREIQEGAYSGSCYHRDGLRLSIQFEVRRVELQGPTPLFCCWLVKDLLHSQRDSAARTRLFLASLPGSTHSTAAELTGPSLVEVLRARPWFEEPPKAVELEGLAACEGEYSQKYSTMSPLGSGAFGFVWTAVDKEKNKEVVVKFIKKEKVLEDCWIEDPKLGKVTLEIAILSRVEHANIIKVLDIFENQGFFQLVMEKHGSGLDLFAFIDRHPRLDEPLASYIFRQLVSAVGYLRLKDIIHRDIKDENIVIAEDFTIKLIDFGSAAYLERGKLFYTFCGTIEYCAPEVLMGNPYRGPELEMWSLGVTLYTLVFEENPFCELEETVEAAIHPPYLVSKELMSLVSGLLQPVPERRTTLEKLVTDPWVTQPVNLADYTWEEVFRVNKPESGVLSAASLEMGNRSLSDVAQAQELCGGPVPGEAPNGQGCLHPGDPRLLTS

[4] = biological target: T1, Adenine phosphoribosyltransferase (Homo sapiens, UniProt P07741)
T1 sequence (P07741 whole entry): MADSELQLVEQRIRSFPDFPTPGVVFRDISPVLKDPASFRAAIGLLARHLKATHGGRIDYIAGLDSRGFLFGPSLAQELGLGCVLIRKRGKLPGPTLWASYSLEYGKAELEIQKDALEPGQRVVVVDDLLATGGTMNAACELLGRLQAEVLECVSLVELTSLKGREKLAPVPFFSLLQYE

LIM domain kinase 1 = LIM domain kinase 1 (Homo sapiens, UniProt P53667)
[5] = biological target: T2, Mitogen-activated protein kinase kinase kinase kinase 3 (Homo sapiens, UniProt Q8IVH8)
T2 sequence (Q8IVH8 whole entry): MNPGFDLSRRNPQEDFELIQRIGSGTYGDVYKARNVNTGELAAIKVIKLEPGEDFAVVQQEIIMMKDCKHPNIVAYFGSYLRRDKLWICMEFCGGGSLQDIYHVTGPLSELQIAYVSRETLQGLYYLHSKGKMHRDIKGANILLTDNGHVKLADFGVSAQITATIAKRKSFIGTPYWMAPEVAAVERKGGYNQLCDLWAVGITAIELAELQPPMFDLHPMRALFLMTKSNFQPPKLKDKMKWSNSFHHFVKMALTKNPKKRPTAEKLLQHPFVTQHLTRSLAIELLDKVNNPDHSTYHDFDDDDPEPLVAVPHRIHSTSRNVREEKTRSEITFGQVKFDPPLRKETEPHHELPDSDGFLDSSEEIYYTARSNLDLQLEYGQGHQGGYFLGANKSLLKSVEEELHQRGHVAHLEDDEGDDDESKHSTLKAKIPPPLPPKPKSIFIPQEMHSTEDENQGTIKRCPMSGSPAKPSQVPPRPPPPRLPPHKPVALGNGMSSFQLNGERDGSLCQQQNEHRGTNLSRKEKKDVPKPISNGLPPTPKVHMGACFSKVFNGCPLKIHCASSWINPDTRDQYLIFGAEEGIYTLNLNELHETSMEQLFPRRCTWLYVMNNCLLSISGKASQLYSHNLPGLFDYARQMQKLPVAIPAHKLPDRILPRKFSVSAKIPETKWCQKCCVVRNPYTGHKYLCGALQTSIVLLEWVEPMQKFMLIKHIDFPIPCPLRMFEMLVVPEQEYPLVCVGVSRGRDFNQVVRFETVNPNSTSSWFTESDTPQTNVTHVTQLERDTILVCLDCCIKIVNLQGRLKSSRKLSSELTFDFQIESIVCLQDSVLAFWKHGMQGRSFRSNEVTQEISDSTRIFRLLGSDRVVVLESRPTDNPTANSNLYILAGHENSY

Aurora kinase B = Aurora kinase B (Homo sapiens, UniProt Q96GD4)
Aurora kinase B, sequence (Q96GD4 whole entry): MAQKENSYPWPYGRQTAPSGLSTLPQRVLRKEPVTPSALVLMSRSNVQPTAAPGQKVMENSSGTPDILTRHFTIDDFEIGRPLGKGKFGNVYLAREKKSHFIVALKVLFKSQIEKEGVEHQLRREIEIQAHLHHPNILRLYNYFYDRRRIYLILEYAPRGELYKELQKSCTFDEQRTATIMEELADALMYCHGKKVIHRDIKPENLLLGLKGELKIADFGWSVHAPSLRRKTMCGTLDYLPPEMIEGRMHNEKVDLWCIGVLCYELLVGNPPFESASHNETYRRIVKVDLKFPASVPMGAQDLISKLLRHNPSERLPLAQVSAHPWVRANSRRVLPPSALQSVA

[6] = biological target: T3, Succinate--CoA ligase [ADP-forming] subunit beta, mitochondrial (Homo sapiens, UniProt Q9P2R7)
T3 sequence (Q9P2R7 whole entry): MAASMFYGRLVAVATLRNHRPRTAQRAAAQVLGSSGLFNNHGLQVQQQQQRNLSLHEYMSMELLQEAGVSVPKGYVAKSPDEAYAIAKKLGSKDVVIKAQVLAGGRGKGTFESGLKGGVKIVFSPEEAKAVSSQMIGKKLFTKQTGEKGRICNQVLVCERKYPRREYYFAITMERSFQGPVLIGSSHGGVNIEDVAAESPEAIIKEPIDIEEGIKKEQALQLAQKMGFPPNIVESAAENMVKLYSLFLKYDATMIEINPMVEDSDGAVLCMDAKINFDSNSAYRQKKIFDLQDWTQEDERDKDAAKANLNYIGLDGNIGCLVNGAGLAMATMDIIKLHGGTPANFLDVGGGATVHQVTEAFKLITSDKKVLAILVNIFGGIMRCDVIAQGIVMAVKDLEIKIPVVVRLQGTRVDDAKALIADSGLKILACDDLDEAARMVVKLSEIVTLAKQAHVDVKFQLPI

[7] = biological target: Mitogen-activated protein kinase 8 (Homo sapiens, UniProt P45983)
LIM domain kinase 2 = LIM domain kinase 2 (Homo sapiens, UniProt P53671)
LIM domain kinase 2, sequence (P53671 whole entry, the tested form may be a part): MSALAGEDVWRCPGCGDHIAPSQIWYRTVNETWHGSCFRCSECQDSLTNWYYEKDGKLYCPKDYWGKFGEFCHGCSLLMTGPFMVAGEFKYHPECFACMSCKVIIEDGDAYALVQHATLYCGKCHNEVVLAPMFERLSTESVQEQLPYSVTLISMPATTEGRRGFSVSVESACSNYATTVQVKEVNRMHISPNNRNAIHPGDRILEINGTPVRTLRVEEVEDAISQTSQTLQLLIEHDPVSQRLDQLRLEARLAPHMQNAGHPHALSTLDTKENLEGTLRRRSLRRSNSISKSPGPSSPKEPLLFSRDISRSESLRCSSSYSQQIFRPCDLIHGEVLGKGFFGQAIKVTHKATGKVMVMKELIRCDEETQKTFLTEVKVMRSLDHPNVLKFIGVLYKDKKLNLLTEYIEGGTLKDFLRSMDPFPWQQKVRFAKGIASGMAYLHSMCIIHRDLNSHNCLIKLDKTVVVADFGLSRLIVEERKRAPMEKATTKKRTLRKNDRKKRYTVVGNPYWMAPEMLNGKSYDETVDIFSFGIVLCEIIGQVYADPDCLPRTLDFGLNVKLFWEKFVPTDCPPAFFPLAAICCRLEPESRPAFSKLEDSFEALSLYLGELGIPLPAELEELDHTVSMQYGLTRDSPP

[8] = biological target: T4, Phosphatidylinositol 5-phosphate 4-kinase type-2 alpha (Homo sapiens, UniProt P48426)
T4 sequence (P48426 whole entry): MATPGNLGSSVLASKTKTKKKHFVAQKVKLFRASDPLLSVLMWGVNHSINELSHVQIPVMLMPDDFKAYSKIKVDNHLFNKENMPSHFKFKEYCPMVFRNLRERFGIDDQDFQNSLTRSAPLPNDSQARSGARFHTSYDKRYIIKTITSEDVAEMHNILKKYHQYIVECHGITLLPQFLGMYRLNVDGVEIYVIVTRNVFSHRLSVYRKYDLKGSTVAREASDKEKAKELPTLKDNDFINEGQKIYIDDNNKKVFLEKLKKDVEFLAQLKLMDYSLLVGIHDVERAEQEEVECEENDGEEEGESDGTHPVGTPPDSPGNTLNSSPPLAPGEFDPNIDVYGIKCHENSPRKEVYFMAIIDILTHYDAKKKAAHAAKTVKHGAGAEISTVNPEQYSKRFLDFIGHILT

[9] = biological target: Tyrosine-protein kinase HCK (Homo sapiens, UniProt P08631)
Tyrosine-protein kinase HCK, sequence (P08631 whole entry): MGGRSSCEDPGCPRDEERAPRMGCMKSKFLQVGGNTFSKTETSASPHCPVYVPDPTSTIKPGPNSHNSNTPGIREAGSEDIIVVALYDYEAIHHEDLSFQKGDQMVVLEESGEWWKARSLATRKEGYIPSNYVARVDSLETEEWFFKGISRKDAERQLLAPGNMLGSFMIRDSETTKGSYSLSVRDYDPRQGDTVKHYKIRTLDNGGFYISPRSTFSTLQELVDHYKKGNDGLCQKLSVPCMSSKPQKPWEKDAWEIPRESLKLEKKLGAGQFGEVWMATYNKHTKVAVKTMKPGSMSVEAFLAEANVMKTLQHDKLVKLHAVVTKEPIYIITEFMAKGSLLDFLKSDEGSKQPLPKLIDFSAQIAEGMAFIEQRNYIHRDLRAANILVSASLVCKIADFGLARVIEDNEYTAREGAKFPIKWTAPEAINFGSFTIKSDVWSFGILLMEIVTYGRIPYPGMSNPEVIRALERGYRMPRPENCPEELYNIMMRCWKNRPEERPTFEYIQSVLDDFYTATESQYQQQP

[10] = biological target: 5'-AMP-activated protein kinase catalytic subunit alpha-1 (Homo sapiens, UniProt Q13131)
5'-AMP-activated protein kinase catalytic subunit alpha-1, sequence (Q13131 whole entry): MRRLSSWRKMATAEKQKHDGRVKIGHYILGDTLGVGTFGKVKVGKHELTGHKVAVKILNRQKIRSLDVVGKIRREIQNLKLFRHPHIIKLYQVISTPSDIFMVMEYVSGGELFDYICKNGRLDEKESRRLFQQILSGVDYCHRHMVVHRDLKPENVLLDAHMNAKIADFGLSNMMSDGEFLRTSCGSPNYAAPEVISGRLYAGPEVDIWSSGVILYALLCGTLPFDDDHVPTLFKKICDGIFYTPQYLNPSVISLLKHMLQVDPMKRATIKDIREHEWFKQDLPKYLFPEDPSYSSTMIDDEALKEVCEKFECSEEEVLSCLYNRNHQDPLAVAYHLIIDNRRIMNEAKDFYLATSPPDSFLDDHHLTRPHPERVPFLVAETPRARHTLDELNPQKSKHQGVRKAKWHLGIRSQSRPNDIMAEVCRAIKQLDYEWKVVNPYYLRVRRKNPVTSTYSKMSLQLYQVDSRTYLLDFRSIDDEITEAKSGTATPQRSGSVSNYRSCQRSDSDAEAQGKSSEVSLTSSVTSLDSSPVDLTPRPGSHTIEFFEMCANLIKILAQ

GTP-binding protein 4 = GTP-binding protein 4 (Homo sapiens, UniProt Q9BZE4)
[11] = biological target: Mitogen-activated protein kinase 7 (Homo sapiens, UniProt Q13164)
[12] = biological target: Mitogen-activated protein kinase 11 (Homo sapiens, UniProt Q15759)
Mitogen-activated protein kinase 11, sequence (Q15759 whole entry): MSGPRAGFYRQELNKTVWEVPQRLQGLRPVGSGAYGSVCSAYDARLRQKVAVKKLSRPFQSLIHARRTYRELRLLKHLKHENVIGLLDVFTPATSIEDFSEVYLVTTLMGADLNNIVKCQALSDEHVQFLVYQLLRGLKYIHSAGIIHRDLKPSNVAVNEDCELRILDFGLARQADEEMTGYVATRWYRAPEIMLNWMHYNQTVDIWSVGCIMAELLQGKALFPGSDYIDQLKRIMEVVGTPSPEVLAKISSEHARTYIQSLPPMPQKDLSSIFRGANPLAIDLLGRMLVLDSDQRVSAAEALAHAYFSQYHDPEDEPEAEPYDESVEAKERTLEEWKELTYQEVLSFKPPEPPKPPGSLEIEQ

Protein-tyrosine kinase 6, sequence (Q13882 whole entry): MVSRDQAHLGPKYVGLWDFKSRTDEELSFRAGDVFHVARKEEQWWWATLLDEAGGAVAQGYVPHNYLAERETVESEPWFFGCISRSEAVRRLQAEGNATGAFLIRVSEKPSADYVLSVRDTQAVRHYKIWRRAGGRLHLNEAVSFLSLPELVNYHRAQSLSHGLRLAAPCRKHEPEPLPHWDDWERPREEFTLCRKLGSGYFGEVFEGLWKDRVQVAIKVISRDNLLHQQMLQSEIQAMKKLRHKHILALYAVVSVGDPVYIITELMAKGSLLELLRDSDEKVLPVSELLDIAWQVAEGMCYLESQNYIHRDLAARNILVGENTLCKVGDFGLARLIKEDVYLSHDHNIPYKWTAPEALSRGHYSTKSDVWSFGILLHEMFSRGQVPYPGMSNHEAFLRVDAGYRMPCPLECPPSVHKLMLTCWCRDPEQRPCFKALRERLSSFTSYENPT

Kd [1] | Kd [2] | Kd (Activin receptor type-2B) | Kd [3] | Kd [4] | Kd (LIM domain kinase 1) | Kd [5] | Kd (Aurora kinase B) | Kd [6] | Kd [7] | Kd (LIM domain kinase 2) | Kd [8] | Kd [9] | Kd [10] | Kd (GTP-binding protein 4) | Kd [11] | Kd [12] | SMILES
0.025 µM | > 30 µM (inactive) | > 30 µM (inactive) | > 30 µM (inactive) | > 30 µM (inactive) | > 30 µM (inactive) | > 30 µM (inactive) | > 30 µM (inactive) | > 30 µM (inactive) | > 30 µM (inactive) | > 30 µM (inactive) | > 30 µM (inactive) | 0.006 µM | > 30 µM (inactive) | > 30 µM (inactive) | > 30 µM (inactive) | > 30 µM (inactive) | C=CC(=O)N1CCC[C@H](n2c(=O)n(-c3ccc(Oc4ccccc4)cc3)c3c(N)ncnc32)C1
> 30 µM (inactive) | > 30 µM (inactive) | > 30 µM (inactive) | > 30 µM (inactive) | > 30 µM (inactive) | > 30 µM (inactive) | > 30 µM (inactive) | > 30 µM (inactive) | > 30 µM (inactive) | > 30 µM (inactive) | > 30 µM (inactive) | > 30 µM (inactive) | > 30 µM (inactive) | > 30 µM (inactive) | > 30 µM (inactive) | > 30 µM (inactive) | > 30 µM (inactive) | Cn1cnc2c(F)c(Nc3ccc(Br)cc3F)c(C(=O)NOCCO)cc21 [BINIMETINIB]
> 30 µM (inactive) | > 30 µM (inactive) | > 30 µM (inactive) | > 30 µM (inactive) | > 30 µM (inactive) | > 30 µM (inactive) | > 30 µM (inactive) | > 30 µM (inactive) | > 30 µM (inactive) | 1.47 µM (active) | > 30 µM (inactive) | > 30 µM (inactive) | > 30 µM (inactive) | > 30 µM (inactive) | > 30 µM (inactive) | > 30 µM (inactive) | 0.872 µM (active) | COc1cc2ncnc(Oc3cccc(NC(=O)Nc4cc(C(C)(C)C(F)(F)F)on4)c3)c2cc1OC [CEP-32496]
> 30 µM (inactive) | > 30 µM (inactive) | > 30 µM (inactive) | > 30 µM (inactive) | > 30 µM (inactive) | > 30 µM (inactive) | > 30 µM (inactive) | > 30 µM (inactive) | > 30 µM (inactive) | > 30 µM (inactive) | > 30 µM (inactive) | > 30 µM (inactive) | > 30 µM (inactive) | > 30 µM (inactive) | > 30 µM (inactive) | > 30 µM (inactive) | > 30 µM (inactive) | COc1c(OCCCN2CCOCC2)ccc2c1N=C(NC(=O)c1cnc(N)nc1)N1CCN=C21 [COPANLISIB]
> 30 µM (inactive) | > 30 µM (inactive) | > 30 µM (inactive) | > 30 µM (inactive) | > 30 µM (inactive) | > 30 µM (inactive) | > 30 µM (inactive) | > 30 µM (inactive) | > 30 µM (inactive) | > 30 µM (inactive) | > 30 µM (inactive) | > 30 µM (inactive) | > 30 µM (inactive) | > 30 µM (inactive) | > 30 µM (inactive) | > 30 µM (inactive) | > 30 µM (inactive) | COc1ncc(-c2ccc3nccc(-c4ccnnc4)c3c2)cc1NS(=O)(=O)c1ccc(F)cc1F [OMIPALISIB]
> 30 µM (inactive) | > 30 µM (inactive) | > 30 µM (inactive) | > 30 µM (inactive) | > 30 µM (inactive) | > 30 µM (inactive) | 2.19 µM (active) | 2.08 µM (active) | > 30 µM (inactive) | > 30 µM (inactive) | > 30 µM (inactive) | > 30 µM (inactive) | > 30 µM (inactive) | 0.006 µM (active) | > 30 µM (inactive) | 3.89 µM (active) | > 30 µM (inactive) | Cc1nc(Nc2n[nH]c3c2CN(C(=O)N[C@H](CN(C)C)c2ccccc2)C3(C)C)c2sccc2n1 [PF-03758309]
> 30 µM (inactive) | > 30 µM (inactive) | > 30 µM (inactive) | > 30 µM (inactive) | > 30 µM (inactive) | > 30 µM (inactive) | > 30 µM (inactive) | > 30 µM (inactive) | > 30 µM (inactive) | > 30 µM (inactive) | > 30 µM (inactive) | > 30 µM (inactive) | > 30 µM (inactive) | > 30 µM (inactive) | > 30 µM (inactive) | > 30 µM (inactive) | > 30 µM (inactive) | Cn1cc(-c2cnn3c(N)c(Br)c([C@@H]4CCCNC4)nc23)cn1 [SCH-900776]
> 30 µM (inactive) | > 30 µM (inactive) | > 30 µM (inactive) | > 30 µM (inactive) | > 30 µM (inactive) | > 30 µM (inactive) | > 30 µM (inactive) | > 30 µM (inactive) | > 30 µM (inactive) | > 30 µM (inactive) | > 30 µM (inactive) | > 30 µM (inactive) | > 30 µM (inactive) | > 30 µM (inactive) | > 30 µM (inactive) | > 30 µM (inactive) | > 30 µM (inactive) | CO[C@H]1C[C@@H]2CC[C@@H](C)[C@@](O)(O2)C(=O)C(=O)N2CCCC[C@H]2C(=O)O[C@H]([C@H](C)C[C@@H]2CC[C@@H](O)[C@H](OC)C2)CC(=O)[C@H](C)/C=C(\C)[C@@H](O)[C@@H](OC)C(=O)[C@H](C)C[C@H](C)/C=C/C=C/C=C/1C [SIROLIMUS]

SMILES | Kd [1] | Kd [2] | Kd (Activin receptor type-2B) | Kd [3] | Kd [4] | Kd (LIM domain kinase 1) | Kd [5] | Kd (Aurora kinase B) | Kd [6] | Kd [7] | Kd (LIM domain kinase 2) | Kd [8] | Kd [9] | Kd [10] | Kd (GTP-binding protein 4) | Kd [11] | Kd [12]
CCOc1cc2ncc(C#N)c(Nc3ccc(F)c(Cl)c3)c2cc1NC(=O)/C=C/CN(C)C [PELITINIB] | > 30 µM (inactive) | > 30 µM (inactive) | > 30 µM (inactive) | > 30 µM (inactive) | > 30 µM (inactive) | > 30 µM (inactive) | 0.189 µM (active) | > 30 µM (inactive) | > 30 µM (inactive) | > 30 µM (inactive) | > 30 µM (inactive) | > 30 µM (inactive) | 1.18 µM (active) | > 30 µM (inactive) | > 30 µM (inactive) | > 30 µM (inactive) | > 30 µM (inactive)
